Measurements published in US7230139B2, “Diterpenoid compounds, compositions thereof and their use as anti-cancer or anti-fungal agents” (priority 2004, dated 2007).

Tests used:
[1] = target: T1, human placental alkaline phosphatase (Homo sapiens, UniProt P05187); assay: Conversion of phosphate pro-drug by alkaline phosphatase in vitro; format: in vitro ADME; settings: 0.02 U/100 μL enzyme, 15 μM pro-drug, pH 7.4, within thirty minutes
T1 construct: purchased Sigma-Aldrich Canada Ltd
Method: The conversion into biologically active drug of phosphate pro-drugs by human placental alkaline phosphatase was measured in vitro using purified enzymes. Purified human placental alkaline phosphatase (Sigma-Aldrich Canada Ltd. Oakville, Ontario, Canada) was added at a concentration of 0.02 U/100 μL to a solution containing 15 μM of phosphate pro-drug, 20 mM Tris-HCl, pH 7.4 and 0.9% NaCl. The solutions were incubated for 10, 20 or 30 minutes. A solution containing 15 μM of phosphate pro-drug, 20 mM Tris-HCl, pH 7.4 and 0.9% NaCl was used a reference (time=0 minutes). To each solution, an equal volume (100 μL) of ice-cold acetonitrile was added, and then the mixture was vortexed and transferred to glass vials. A standard concentration curve of the pro-drug and the drug was prepared in 10 mM Tris-HCl, pH 7.4, 0.45% NaCl and 50% acetonitrile. All samples were immediately analyzed by LC/MS.

[2] = Solubility by filtration and LC/MS; format: physicochemical; settings: in water (printed for Compound 74)
Method: To determine whether a compound is soluble in a solution, the solution was filtered on […] polytetrafluoroethylene filters (Whatman Inc. Clifton, N.J., USA) and the compound concentration in the filtrate was measured by LC/MS and compared to the expected concentration. If the concentration of the compound in the filtrate was equal +/−15% to the expected concentration, the compound was judged to be soluble in the solution.
The detection of Compound 74 or Compound 50 by LC/MS was carried out using the HPLC system that consisted of a Waters Alliance quaternary gradient HPLC pump (Waters, Milford, Mass., USA) and a ZQ2000 single quadrupole mass spectrometer (Waters, Milford, Mass., USA). The column used was XTerra MS C18: 50×2.1 mm, […] column at 20° C. Samples were injected and separated under the following conditions: The mobile phase “A” consisted of 5 mM ammonium formate, 0.1% formic acid in water and mobile phase “B” consisted of 5 mM ammonium formate, 0.1% formic acid in methanol. A linear gradient was applied as follows: 0 to 1 min, 94% “A” and 6% “B”; 1 to 4 min, 6% to 100% “B”; 4 to 8 min 100% “B”; 8 to 9 min, 100% “B” to 6% “B”; 9 to 12 min, 94% “A” and 6% “B”. […] Compounds were detected at m/z equal to their respective molecular weight plus 1.

[3] = tested on: A549 human non-small cell lung carcinoma; assay: Cell viability, cellular ATP levels (Vialight HS); format: cell-based; settings: Table 5, A549, NSCL-adrenocarinoma, tumor, ATP levels 72 h post-treatment
Description: (§1) The following cell lines were used: A549 human non-small cell lung carcinoma; C33A human cervical carcinoma; H1299 human non-small cell lung carcinoma; Hep-3B human hepatocellular carcinoma; MIA-Paca-2 human pancreatic carcinoma; PC-3 human prostatic adenocarcinoma (American Type Culture Collection, Manassas, Va., USA); HMEC normal human mammary epithelial cells; HUVEC normal human umbilical vein endothelial cells; and NHBE normal human bronchial epithelial cells (Cambrex Bio Science, Rockland, Me., USA). […] HMEC, HUVEC and NHBE cell lines were cultured in MEGM, EGM-2 and BEGM media, respectively (Cambrex Bio Science, Rockland, Me., USA). The cell lines were plated in 96-well microtitre plate at a density of 2–4×10^3 cells per well. After 16 hours, the cells were treated with various concentrations of Compound 50a or Compound 50b. Stock solutions of Compound 50a and Compound 50b, respectively, were prepared in dimethyl sulfoxide at a concentration of 5 mM. Serial dilutions were prepared in RPMI, 10% FBS and 2% DMSO and then added to the cells. The total DMSO in the cell cultures was 1%. […] The IC50s were determined using a best-fit sigmoidal dose response curve with variable slope.

[4] = tested on: HMEC normal human mammary epithelial cells; assay: Cell viability, cellular ATP levels (Vialight HS); format: cell-based; settings: Table 5, breast epithelial, ATP levels 72 h post-treatment
Description: as §1

[5] = tested on: HUVEC normal human umbilical vein endothelial cells; assay: Cell viability, cellular ATP levels (Vialight HS); format: cell-based; settings: Table 5, ATP levels 72 h post-treatment
Description: as §1

[6] = tested on: PC-3 human prostatic adenocarcinoma; assay: Cell viability, cellular ATP levels (Vialight HS); format: cell-based; settings: Table 5, PC-3, prostate, tumor, ATP levels 72 h post-treatment
Description: as §1

[7] = tested on: NHBE normal human bronchial epithelial cells; assay: Cell viability, cellular ATP levels (Vialight HS); format: cell-based; settings: Table 5, ATP levels 72 h post-treatment
Description: as §1

[8] = tested on: Hep-3B human hepatocellular carcinoma; assay: Cell viability, cellular ATP levels (Vialight HS); format: cell-based; settings: Hep3B, Table 5, liver, tumor, ATP levels 72 h post-treatment
Description: as §1

[9] = tested on: MIA-Paca-2 human pancreatic carcinoma; assay: Cell viability, cellular ATP levels (Vialight HS); format: cell-based; settings: Table 5, MIA-Paca-2, pancreas, tumor, ATP levels 72 h post-treatment
Description: as §1

[10] = Body weight of SW480 tumor-bearing mice; format: in vivo, CB17 SCID/SCID female mice; settings: i.v. once daily for five days; 10 mg/kg (50, 50a, 50b), 50 mg/kg (74a)
Method: (§2) SW480 cells were transplanted subcutaneously into the flank of female CB 17 SCID/SCID mice. Each mouse was inoculated with a suspension of 1×10^6 tumor cells per 100 μL on day zero. The following five treatment groups of ten mice each were used: (a) a negative control group treated with intravenous (i.v.) injection of vehicle, (b) a group treated with i.v. injection of a Compound 50, (c) a group treated with i.v. injection of a Compound 50a, (d) a group treated with i.v. injection of Compound 50b, (e) a group treated with i.v. injection of Compound 74a.
(§3) Treatment started on day twelve after SW480 cells transplantation and Compounds 50, 50a, 50b and 74a were administered i.v. once daily for five consecutive days at a dose of 10, 10, 10 and 50 mg/kg, respectively. Compound 50, 50a and 50b were prepared as a working solution of 1.5 mg/mL in a vehicle solution of 20% Cremaphor EL (Sigma, St. Louis, Miss., USA), and 10% Ethanol. Compound 74a was prepared as a working solution of 5 mg/mL in a vehicle solution of 5% Dextrose (Abbot Laboratories, QC, Canada). The negative control groups were treated with vehicle solution of 20% Cremaphor EL and 10% Ethanol alone.
(§4) The mice were weighed and the tumors measured on day 12 and every 2 to 3 days after treatment commenced. Observations continued for 23 days after initial tumor implantation. The changes in body weight and in the calculated tumor volume were plotted (FIGS. 9 and 10). Statistical analysis was performed using GraphPad Prism (GraphPad Software Inc., San Diego, Calif.). Two-way ANOVA was used to determine how the treatment affected tumor growth over time. Following the two-way ANOVA, post-tests were performed using the Benferroni method to determine the statistical difference between the mean tumor-size of the two groups being compared on every day that the tumors were measured.

[11] = tested on: H1299 human non-small cell lung carcinoma; assay: Cell viability, cellular ATP levels (Vialight HS); format: cell-based; settings: NCI-H1299, Table 5, H1299, NSCL-LC carcinoma, tumor, ATP levels 72 h post-treatment vs untreated cells, read-out: IC50
Description: as §1
(§5) The selected tumor cell lines included C33A human cervical carcinoma and H1299 human non-small cell lung carcinoma (American Type Culture Collection, Manassas, Va., USA). The cell lines were cultured in RPMI 1640 media supplemented with 10% FBS (Hyclone, Logan, Vt., USA), 100 U/mL penicillin, 100 μg/mL streptomycin and 2 mM L-glutamine (Invitrogen, Carlsbad, Calif., USA). The cell lines were plated in 96-well microtitre plate at a density of 2–4×10^3 cells per well. After 16 hours, the cells were treated with various concentrations of compound 66, 67, 68, 69 and 70, respectively. Stock solutions of compounds 66, 67, 68, 69 and 70 were prepared in dimethyl sulfoxide at a concentration of 5 mM. Serial dilutions were prepared in RPMI, 10% FBS and 2% DMSO and then added to the cells. The total DMSO on the cells was 1%. […] The IC50s were determined using a best-fit sigmoidal dose response curve with variable slope.

[12] = tested on: C33A human cervical carcinoma; assay: Cell viability, cellular ATP levels (Vialight HS); format: cell-based; settings: C-33-A, Table 5, C33A, cervix, tumor, ATP levels 72 h post-treatment, read-out: IC50
Description: as §1, §5

[13] = tested on: SW480 human colon carcinoma cancer cells; assay: SW480 colon carcinoma xenograft in SCID mice; format: in vivo, CB17 SCID/SCID female mice; settings: i.v. 10 mg/kg once a day for five days
Method: The resultant mice are a model for a human having colon carcinoma cancer.
The SW480 human colon carcinoma cancer cells were maintained in RPMI supplemented with 10% inactivated fetal bovine serum and 1% penicillin-streptomycin-L-Glutamine, under 5% CO2 at 37° C., and passaged twice a week. The cells were grown at a confluency lower than 70% and then collected with Trypsin (Bio-Whittaker, Md., USA). The cells were then centrifuged and washed twice using phosphate buffered saline solution (PBS) and resuspended in PBS at 1×10^6 cells per 100 μl. Viability was examined by staining with Trypan Blue and only flasks with cell viability of greater than 95% were used for in vivo studies.
as §2, §3, §4

T1 sequence (P05187 23-506 limits assumed): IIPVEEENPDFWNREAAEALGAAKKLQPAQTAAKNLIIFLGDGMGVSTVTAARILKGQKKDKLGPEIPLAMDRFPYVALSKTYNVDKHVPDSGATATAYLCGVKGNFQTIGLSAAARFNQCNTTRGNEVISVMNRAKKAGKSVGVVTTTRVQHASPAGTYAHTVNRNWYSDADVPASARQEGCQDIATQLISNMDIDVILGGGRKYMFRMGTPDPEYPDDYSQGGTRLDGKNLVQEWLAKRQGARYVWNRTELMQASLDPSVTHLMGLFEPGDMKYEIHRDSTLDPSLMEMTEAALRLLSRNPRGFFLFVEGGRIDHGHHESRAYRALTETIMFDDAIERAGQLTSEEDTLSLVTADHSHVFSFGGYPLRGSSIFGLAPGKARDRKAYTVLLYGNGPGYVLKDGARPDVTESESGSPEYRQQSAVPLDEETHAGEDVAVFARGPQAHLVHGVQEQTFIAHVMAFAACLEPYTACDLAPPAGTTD

Compound | Conversion of pro-drug into drug Compound 50 [1] | solubility [2] [µg/mL] | IC50 [3] [nM] | IC50 [4] [nM] | IC50 [5] [nM] | IC50 [6] [nM] | IC50 [7] [nM] | IC50 [8] [nM] | IC50 [9] [nM] | Change in body weight [10] | IC50 [11] [nM] | IC50 [12] [nM] | Tumor growth compared to vehicle [13]
COc1ccc2c(c1)C1(C)C=CC(=O)C(C)(C)C1=C(OP(=O)(O)O)C2=O (racemic) [Compound 74] | convert a fraction of the pro-drug | ≥ 10000 |  |  |  |  |  |  |  |  |  |  | 
COc1ccc2c(c1)[C@]1(C)C=CC(=O)C(C)(C)C1=C(O)C2=O [Compound 50b] |  |  | 580 | 2100 | 1300 | 350 | 1200 | 770 | 250 | non-significant change in body weight | 230 | 450 | significant reduction (p<0.001)
